Values quoted from earlier work as cited in patent publication US20150230971A1, “MULTIPURPOSE DRUG DELIVERY SYSTEMS FOR LONG-TERM IMPLANTATION OR INSERTION” (PAT&CO BVBA, priority 2012, published 2015).

System: rats and mice
Conditions: carcinomas and/or precursor lesions of oral cavity, lips, tongue, esophagus, forestomach

C=COC(C)=O [VAM, vinyl acetate monomer]
carcinogenicity: increase in total malignant tumors
